According to patent US8501713B2, “Drug combinations for the treatment of duchenne muscular dystrophy” (Summit Corporation PLC, priority 2007, dated 2013):

System: Utrophin A promoter linked to a luciferase reporter gene
Assay: Luciferase reporter assay (murine H2K cells)
Assay type: cell-based
Details: luciferase reporter assay in murine H2K cells; classified relative to control
In short: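 Compound at 10 μM final was applied for 48 hrs to plated H2K mdx myoblasts (33° C, 10% CO2, interferon-containing medium) bearing a luciferase gene under the utrophin A promoter. Luminescence from lysed cells served as read-out.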

Row | SMILES | Activity
1 | CC(C)(C)c1ccc2oc(-c3ccc(N)cc3)nc2c1 [Example 593] | +++ (Between 301% and 400% relative to control)
2 | Oc1cccc(-c2nc3ccccc3s2)c1 [Example 594] | ++++ (Above 401% relative to control)
3 | Clc1ccc(-c2nc3ccccc3s2)c(Cl)c1 [Example 595] | ++ (Between 201% and 300% relative to control)
4 | COc1ccc(-c2nc3ccccc3s2)cc1O [Example 596] | ++++ (Above 401% relative to control)
5 | COc1ccc(-c2nc3ccccc3s2)cc1N [Example 597] | +++ (Between 301% and 400% relative to control)
6 | Nc1ccc2nc(-c3cccc(Cl)c3)oc2c1 [Example 598] | +++ (Between 301% and 400% relative to control)
7 | Cc1cc(-c2nc3ccccc3s2)ccc1[N+](=O)[O-] [Example 599] | ++++ (Above 401% relative to control)
8 | COc1cccc(-c2nc3ccccc3[nH]2)c1 [Example 600] | ++ (Between 201% and 300% relative to control)
9 | Nc1ccc(-c2nc3ccccc3s2)cc1 [Example 601] | +++ (Between 301% and 400% relative to control)
10 | Nc1cccc(-c2nc3ccccc3s2)c1 [Example 602] | +++ (Between 301% and 400% relative to control)
11 | Cc1ccc(-c2nc3cc(N)ccc3o2)cc1C [Example 603] | +++ (Between 301% and 400% relative to control)
12 | O=[N+]([O-])c1ccc2nc(-c3ccccc3)[nH]c2c1 [Example 604] | +++ (Between 301% and 400% relative to control)
13 | Cc1ccc2[nH]c(-c3ccc([N+](=O)[O-])cc3)nc2c1 [Example 605] | +++ (Between 301% and 400% relative to control)
14 | COc1cccc(-c2nc3ccccc3s2)c1 [Example 606] | +++ (Between 301% and 400% relative to control)
15 | Cc1cc(-c2nc3ccccc3o2)ccc1[N+](=O)[O-] [Example 607] | ++++ (Above 401% relative to control)
16 | c1ccc2sc(-c3ccc4c(c3)OCO4)nc2c1 [Example 608] | ++++ (Above 401% relative to control)
17 | CCC(C)c1ccc2oc(-c3ccc(N)cc3)nc2c1 (stereo not shown) [Example 609] | +++ (Between 301% and 400% relative to control)
18 | Cc1cc2nc(-c3ccc(N)cc3O)oc2cc1C [Example 610] | ++++ (Above 401% relative to control)
19 | Cc1ccc2nc(-c3ccc(C(F)(F)F)cc3)oc2c1 [Example 611] | +++ (Between 301% and 400% relative to control)
20 | Cc1ccc2oc(-c3cccs3)nc2c1 [Example 612] | ++ (Between 201% and 300% relative to control)
21 | Cc1ccc(-c2nc3ccccc3[nH]2)cc1 [Example 613] | +++ (Between 301% and 400% relative to control)
22 | O=C(COc1ccc2c(c1)OCO2)Nc1nc2ccccc2s1 [Example 614] | + (Up to 200% relative to control)
23 | CCn1c(C)nc2cc(C(=O)Nc3ccccc3)ccc21 [Example 615] | ++++ (Above 401% relative to control)
24 | O=C(Nc1nc2ccccc2s1)c1ccccc1Br [Example 616] | ++++ (Above 401% relative to control)
25 | O=C(CSc1nc2ccccc2s1)N1CCCCC1 [Example 617] | ++++ (Above 401% relative to control)
26 | O=C(Nc1ccc2c(c1)OCO2)c1sc2ccccc2c1Cl [Example 618] | ++++ (Above 401% relative to control)

Row | SMILES | Activity
27 | COc1ccc(-c2nc3ccccc3o2)cc1N [Example 619] | ++++ (Above 401% relative to control)
28 | Cc1ccc(-c2nc3ccccc3[nH]2)cc1N [Example 620] | ++++ (Above 401% relative to control)
29 | O=C(Nc1ccccc1F)c1sc2ccccc2c1Cl [Example 621] | ++++ (Above 401% relative to control)
30 | Nc1cccc(-c2nc3cc(Cl)ccc3o2)c1 [Example 622] | ++++ (Above 401% relative to control)
31 | Cc1cc2nc(-c3cccc(NC(=O)c4ccco4)c3)oc2cc1C [Example 623] | ++++ (Above 401% relative to control)
32 | CCc1ccc2oc(-c3ccc(C)c(N)c3)nc2c1 [Example 625] | ++++ (Above 401% relative to control)
33 | O=C(Nc1nc2ccccc2s1)c1cc2ccccc2o1 [Example 626] | ++++ (Above 401% relative to control)
34 | Cc1cc(C)c2oc(-c3ccc(Cl)c(N)c3)nc2c1 [Example 627] | ++++ (Above 401% relative to control)
35 | Nc1c(C(=O)Nc2ccc(F)cc2)sc2nc3c(cc12)CCC3 [Example 628] | ++++ (Above 401% relative to control)
36 | O=C(Nc1nc2ccc(F)cc2s1)c1ccccc1Br [Example 629] | ++++ (Above 401% relative to control)
37 | COc1ccc2oc(-c3cccc(N)c3)nc2c1 [Example 630] | ++++ (Above 401% relative to control)
38 | CCC(C)C(=O)Nc1ccc(-c2nc3ccccc3[nH]2)cc1 (stereo not shown) [Example 631] | ++++ (Above 401% relative to control)
39 | Cc1ccc2[nH]c(-c3sc4nc(C)ccc4c3N)nc2c1 [Example 632] | ++++ (Above 401% relative to control)
40 | c1ccc(OCc2nc3ccccc3s2)cc1 [Example 633] | +++ (Between 301% and 400% relative to control)
41 | CCn1c(C)nc2cc(-c3ccccc3)ccc21 [Example 634] | +++ (Between 301% and 400% relative to control)
42 | Cc1ccc2nc(-c3ccc(C)c(N)c3)oc2c1 [Example 635] | +++ (Between 301% and 400% relative to control)
43 | Cc1ccc2oc(-c3ccc(Cl)c(N)c3)nc2c1 [Example 636] | +++ (Between 301% and 400% relative to control)
44 | Cc1ccc(NC(=O)Nc2nc3ccccc3s2)cc1 [Example 637] | +++ (Between 301% and 400% relative to control)
45 | Cc1ccc2nc(-c3ccc(NC(=O)c4cccnc4)cc3)sc2c1 [Example 638] | +++ (Between 301% and 400% relative to control)
46 | c1ccc2nc(-c3nc4ccccc4s3)ccc2c1 [Example 639] | +++ (Between 301% and 400% relative to control)
47 | COc1ccc(CSc2nc3ccccc3[nH]2)cc1 [Example 640] | +++ (Between 301% and 400% relative to control)
48 | O=C(Nc1ccc(-c2nc3ncccc3o2)cc1)c1ccccc1Cl [Example 641] | +++ (Between 301% and 400% relative to control)
49 | CCc1ccc2oc(-c3cccc(NC(C)=O)c3)nc2c1 [Example 642] | +++ (Between 301% and 400% relative to control)
50 | Cc1ccc2nc(-c3ccc(O)cc3)sc2c1 [Example 643] | +++ (Between 301% and 400% relative to control)
51 | CCC(=O)Nc1cccc(-c2nc3cc(C)ccc3o2)c1 [Example 644] | +++ (Between 301% and 400% relative to control)
52 | COc1ccc(CSc2nc3ccccc3n2C)cc1F [Example 645] | +++ (Between 301% and 400% relative to control)

Row | SMILES | Activity
53 | Cc1cc2nc(-c3cc(N)ccc3Cl)oc2cc1C [Example 646] | +++ (Between 301% and 400% relative to control)
54 | c1cc(NCc2ccncc2)cc(-c2nc3ccccc3s2)c1 [Example 647] | +++ (Between 301% and 400% relative to control)
55 | Cc1ccccc1C(=O)Nc1nc2ccccc2[nH]1 [Example 648] | +++ (Between 301% and 400% relative to control)
56 | Cc1cc(-c2nc3cc(N)ccc3o2)ccc1Br [Example 649] | +++ (Between 301% and 400% relative to control)
57 | Cc1cccc(NC(=O)c2sc3nc(C)cc(C)c3c2N)c1 [Example 650] | +++ (Between 301% and 400% relative to control)
58 | CC(C)C(=O)Nc1ccc(-c2nc3ccccc3s2)cc1 [Example 651] | +++ (Between 301% and 400% relative to control)
59 | Cc1ccc2nc(NC(=O)c3ccco3)sc2c1 [Example 652] | +++ (Between 301% and 400% relative to control)
60 | Nc1cc(-c2nc3ccccc3[nH]2)ccc1Cl [Example 653] | +++ (Between 301% and 400% relative to control)
61 | Cc1ccc2nc(-c3ccc(NC(=O)CSc4nnc[nH]4)cc3)sc2c1 [Example 654] | +++ (Between 301% and 400% relative to control)
62 | CC(=O)Oc1ccc(C(=O)Nc2ccc(-c3nc4ccccc4[nH]3)cc2)cc1 [Example 655] | +++ (Between 301% and 400% relative to control)
63 | Cc1cc2oc(C(=O)NCc3ccncc3)c(C)c2cc1C [Example 656] | +++ (Between 301% and 400% relative to control)
64 | CCOCC(=O)Nc1ccc(-c2nc3ccc(C)cc3s2)cc1 [Example 657] | +++ (Between 301% and 400% relative to control)
65 | O=C(Nc1nc2ccc(F)cc2s1)c1cccs1 [Example 658] | +++ (Between 301% and 400% relative to control)
66 | Cc1nn(-c2nc3ccccc3[nH]2)c(N)c1-c1ccccc1 [Example 659] | +++ (Between 301% and 400% relative to control)
67 | CCOCCC(=O)Nc1ccc(-c2nc3ccc(C)cc3s2)cc1 [Example 660] | +++ (Between 301% and 400% relative to control)
68 | O=C(Nc1ccc(-c2nc3ccccc3s2)cc1)C1CC1 [Example 661] | +++ (Between 301% and 400% relative to control)
69 | CC(=O)Nc1ccc(-c2nc3cc(C)ccc3o2)cc1 [Example 662] | +++ (Between 301% and 400% relative to control)
70 | Cc1ccc(NC(=O)C(=O)c2c[nH]c3ccccc23)c(Br)c1 [Example 663] | +++ (Between 301% and 400% relative to control)
71 | Cc1ccc2nc(-c3ccc(N)cc3)sc2c1 [Example 664] | ++ (Between 201% and 300% relative to control)
72 | O=C(NCCc1ccccc1)c1cc2ccccc2o1 [Example 665] | ++ (Between 201% and 300% relative to control)
73 | Cn1c(CNc2ccc(Cl)cc2)nc2ccccc21 [Example 666] | ++ (Between 201% and 300% relative to control)
74 | CCC(=O)Nc1ccc(-c2nc3ccccc3s2)cc1 [Example 667] | ++ (Between 201% and 300% relative to control)
75 | CCC(=O)Nc1ccc2oc(-c3cccc(C)c3)nc2c1 [Example 668] | ++ (Between 201% and 300% relative to control)
76 | Cn1c(NC(=N)c2ccccc2)nc2ccccc21 [Example 669] | ++ (Between 201% and 300% relative to control)
